Laboratory results published in BindingDB's records for doi:10.1021/jm00055a008 (Tufts University, 1993).

What follows are compounds tested against Tetracycline efflux protein TetA(B) (Escherichia coli) (assay: Inhibition of [3H]tetracycline uptake into everted membrane vesicles, prepared from tetracycline resistant Escherichia coli D1-209).

Row | IC50 [nM] | Compound
1 | 7900 | CSC[C@H]1c2cccc(O)c2C(=O)C2C(=O)[C@]3(O)C(=O)C(C(N)=O)C(=O)[C@@H](N(C)C)C3[C@@H](O)C21 (stereo not given in full) [4-Dimethylamino-3,5,10,12,12a-pentahydroxy-6-methylsulfanylmethyl-1,11-dioxo-1,4,4a,5,5a,6,11,12a-octahydro-naphthacene-2-carboxylic acid amide]
2 | 800 | CCCCSC[C@H]1c2cccc(O)c2C(=O)C2C(=O)[C@]3(O)C(=O)C(C(N)=O)C(=O)[C@@H](N(C)C)C3[C@@H](O)C21 (stereo not given in full) [6-Butylsulfanylmethyl-4-dimethylamino-3,5,10,12,12a-pentahydroxy-1,11-dioxo-1,4,4a,5,5a,6,11,12a-octahydro-naphthacene-2-carboxylic acid amide]
3 | 1200 | COc1ccc(SC[C@H]2c3cccc(O)c3C(=O)C3C(=O)[C@]4(O)C(=O)C(C(N)=O)C(=O)[C@@H](N(C)C)C4[C@@H](O)C32)cc1 (stereo not given in full) [4-Dimethylamino-3,5,10,12,12a-pentahydroxy-6-(4-methoxy-phenylsulfanylmethyl)-1,11-dioxo-1,4,4a,5,5a,6,11,12a-octahydro-naphthacene-2-carboxylic acid amide]
4 | 1000 | CN(C)[C@@H]1C(=O)C(C(=O)NCN2CCOCC2)C(=O)[C@@]2(O)C(=O)C3C(=O)c4c(O)cccc4[C@H](CSC4CCCC4)C3[C@H](O)C12 (stereo not given in full) [6-Cyclopentylsulfanylmethyl-4-dimethylamino-3,5,10,12,12a-pentahydroxy-1,11-dioxo-1,4,4a,5,5a,6,11,12a-octahydro-naphthacene-2-carboxylic acid (morpholin-4-ylmethyl)-amide]
5 | 6900 | CN(C)[C@@H]1C(=O)C(C(N)=O)C(=O)[C@@]2(O)C(=O)C3C(=O)c4c(O)cccc4[C@H](CSc4ccccc4)C3[C@H](O)C12 (stereo not given in full) [4-Dimethylamino-3,5,10,12,12a-pentahydroxy-1,11-dioxo-6-phenylsulfanylmethyl-1,4,4a,5,5a,6,11,12a-octahydro-naphthacene-2-carboxylic acid amide]
6 | 1500 | CN(C)[C@@H]1C(=O)C(C(N)=O)C(=O)[C@@]2(O)C(=O)C3C(=O)c4c(O)cccc4[C@H](CS(=O)(=O)Cc4ccccc4)C3[C@H](O)C12 (stereo not given in full) [4-Dimethylamino-3,5,10,12,12a-pentahydroxy-1,11-dioxo-6-phenylmethanesulfonylmethyl-1,4,4a,5,5a,6,11,12a-octahydro-naphthacene-2-carboxylic acid amide]
7 | 500 | CN(C)[C@@H]1C(=O)C(C(N)=O)C(=O)[C@@]2(O)C(=O)C3C(=O)c4c(O)cccc4[C@H](CSC(C)(C)C)C3[C@H](O)C12 (stereo not given in full) [6-tert-Butylsulfanylmethyl-4-dimethylamino-3,5,10,12,12a-pentahydroxy-1,11-dioxo-1,4,4a,5,5a,6,11,12a-octahydro-naphthacene-2-carboxylic acid amide]
8 | 2100 | CN(C)[C@@H]1C(=O)C(C(N)=O)C(=O)[C@@]2(O)C(=O)C3C(=O)c4c(O)cccc4[C@H](CSCc4ccc(Cl)cc4)C3[C@H](O)C12 (stereo not given in full) [6-(4-Chloro-benzylsulfanylmethyl)-4-dimethylamino-3,5,10,12,12a-pentahydroxy-1,11-dioxo-1,4,4a,5,5a,6,11,12a-octahydro-naphthacene-2-carboxylic acid amide]
9 | 1600 | CN(C)[C@@H]1C(=O)C(C(N)=O)C(=O)[C@@]2(O)C(=O)C3C(=O)c4c(O)cccc4[C@H](CSc4ccc(Cl)cc4)C3[C@H](O)C12 (stereo not given in full) [6-(4-Chloro-phenylsulfanylmethyl)-4-dimethylamino-3,5,10,12,12a-pentahydroxy-1,11-dioxo-1,4,4a,5,5a,6,11,12a-octahydro-naphthacene-2-carboxylic acid amide]
10 | 43200 | CN(C)[C@@H]1C(=O)C(C(N)=O)C(=O)[C@@]2(O)C(=O)C3C(=O)c4c(O)cccc4[C@H](CSCCC(=O)O)C3[C@H](O)C12 (stereo not given in full) [3-(9-Carbamoyl-7-dimethylamino-1,6,8,10a,11-pentahydroxy-10,12-dioxo-5,5a,6,6a,7,10,10a,12-octahydro-naphthacen-5-ylmethylsulfanyl)-propionic acid]
